# From article PMC9574860, “Chemical Toolkit for PARK7: Potent, Selective, and High-Throughput” (Journal of Medicinal Chemistry, 2022)
# What was measured:
# PARK7 [1] = biological target: T1, PARK7 (Homo sapiens, UniProt Q99497); assay: DiFMUAc PARK7 activity assay; assay type: biochemical; design: GST (N, cleaved yes); made in house; host or cells: E. coli BL21(DE3) Rosetta2; conditions: for inhibition at 12.5 µM: read-out: DiFMuAc assay %Inhibiton (12.5 µM); for inhibition at 37.5 µM: read-out: DiFMuAc assay %Inhibiton (37.5 µM); for inhibition at 100 µM: read-out: DiFMuAc assay %Inhibiton (100 µM)
# T1 sequence (Q99497 1-189): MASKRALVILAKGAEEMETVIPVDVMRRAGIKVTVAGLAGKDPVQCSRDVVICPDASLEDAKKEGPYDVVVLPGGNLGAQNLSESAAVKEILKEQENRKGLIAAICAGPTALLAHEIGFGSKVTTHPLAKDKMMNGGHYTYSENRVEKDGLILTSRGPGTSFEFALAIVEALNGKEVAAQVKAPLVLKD
# Procedure: Compounds were transferred using a Labcyte Echo550 acoustic dispenser to obtain a 12-point serial dilution of 0.001 to 100 μM. Next, PARK7 (15 μL, final concentration of 0.1 μM) was dispensed with a Biotek MultiFlowFX liquid dispenser and incubated for 1 h, followed by dispensing the substrate DiFMUAc (5 μL, final concentration of 300 μM). The fluorescence intensity (FI) signal was monitored with a BMG Labtech PHERAstar plate reader (λex/em 350/450 nm) for 1 h.
# The validation was performed in the PBS buffer with a reaction volume of 20 μL per well in triplicate. […] Next, PARK7 (15 μL, final concentration 0.1 μM) was dispensed with a Biotek MultiFlowFX liquid dispenser and incubated for 2 h, followed by dispensing the substrate DiFMUAc (5 μL, final concentration 300 μM). The FI signal was monitored with a BMG Labtech PHERAstar plate reader (λex/em 350/450 nm) for 1 h. The increase of FI signal compared with reference controls was used to calculate the remaining enzyme activity. The inhibition percentage of these 22 compounds was plotted as a heatmap using GraphPad Prism 9.0.1 software. Color gradients indicate inhibition percentage, no inhibiton (white) and full inhibition (blue).
# PARK7 [2] = biological target: T1, PARK7; assay: FP assay with Rhodamine110 probe JYQ-107 (IC50 and hit validation); assay type: binding; design: GST (N, cleaved yes); made in house; host or cells: E. coli BL21(DE3) Rosetta2; conditions: for inhibition at 12.5 µM: read-out: FP assay %Inhibiton (12.5 µM); for inhibition at 37.5 µM: read-out: FP assay %Inhibiton (37.5 µM); for inhibition at 100 µM: read-out: FP assay %Inhibiton (100 µM)
# Procedure: The assay was performed using the conditions as described above with a reaction volume of 20 μL per well in triplicate. Stock solutions of JYQ-88 of 1 and 0.1 mM were prepared. […] The FP signal was monitored with a BMG Labtech PHERAstar plate reader (λex/em 480/520 nm) for 2 h.
# The validation was performed using the conditions as described above with a reaction volume of 20 μL per well in triplicate. […] The FP signal was monitored with a BMG Labtech PHERAstar plate reader (λex/em 480/520 nm) for 2 h. The relative loss of FP signal compared with reference controls was used to calculate the remaining enzyme activity. Inhibition percentage of these 40 compounds was plotted as a heatmap using GraphPad Prism 9.0.1 software. Color gradients indicate inhibition percentage, no inhibiton (white) and full inhibition (blue).
# [3] = 12.5 µM compound, PARK7 0.2 μM, 1 h preincubation, JYQ-107 20 nM
# [4] = 37.5 µM compound, PARK7 0.2 μM, 1 h preincubation, JYQ-107 20 nM
# [5] = 100 µM compound, PARK7 0.2 μM, 1 h preincubation, JYQ-107 20 nM
# [6] = 12.5 µM compound, PARK7 0.1 μM, 2 h preincubation, DiFMUAc 300 μM
# [7] = 37.5 µM compound, PARK7 0.1 μM, 2 h preincubation, DiFMUAc 300 μM
# [8] = 100 µM compound, PARK7 0.1 μM, 2 h preincubation, DiFMUAc 300 μM
smiles,measurement,setting,value
"O=C1C(=O)N(CCc2ccccc2)c2ccc(F)cc21 [STK793590, reference compound]",IC50,"PARK7 [1]; DiFMUAc assay, PARK7 0.1 μM, 1 h preincubation, DiFMUAc 300 μM",190 nM
CCc1ccc(NC(=O)CCl)cc1 [Z56886400],inhibition at 12.5 µM,PARK7 [2]; [3],90.8%
same,inhibition at 37.5 µM,PARK7 [2]; [4],95.6%
same,inhibition at 100 µM,PARK7 [2]; [5],100%
CCN(c1ccc(NC(=O)CCl)cc1)C(C)C [Z56896170],inhibition at 12.5 µM,PARK7 [2]; [3],100%
same,inhibition at 37.5 µM,PARK7 [2]; [4],100%
same,inhibition at 100 µM,PARK7 [2]; [5],100%
same,inhibition at 12.5 µM,PARK7 [1]; [6],81.4%
same,inhibition at 37.5 µM,PARK7 [1]; [7],94.9%
same,inhibition at 100 µM,PARK7 [1]; [8],97.4%
O=C(CCl)Nc1ccc(SC(F)F)cc1 [Z56896308],inhibition at 12.5 µM,PARK7 [2]; [3],62.4%
same,inhibition at 37.5 µM,PARK7 [2]; [4],65.9%
same,inhibition at 100 µM,PARK7 [2]; [5],100%
CC(C)(C)c1ccc(NC(=O)CCl)cc1 [Z56922153],inhibition at 12.5 µM,PARK7 [2]; [3],100%
same,inhibition at 37.5 µM,PARK7 [2]; [4],100%
same,inhibition at 100 µM,PARK7 [2]; [5],100%
same,inhibition at 12.5 µM,PARK7 [1]; [6],87.1%
same,inhibition at 37.5 µM,PARK7 [1]; [7],94.2%
same,inhibition at 100 µM,PARK7 [1]; [8],100%
COc1ccccc1CN(C)C(=O)CCl [Z57051055],inhibition at 12.5 µM,PARK7 [2]; [3],68.3%
same,inhibition at 37.5 µM,PARK7 [2]; [4],66.1%
same,inhibition at 100 µM,PARK7 [2]; [5],100%
CC1CCC(N(C)C(=O)CCl)CC1 (stereo not shown) [Z85923410],inhibition at 12.5 µM,PARK7 [2]; [3],85.7%
same,inhibition at 37.5 µM,PARK7 [2]; [4],100%
same,inhibition at 100 µM,PARK7 [2]; [5],100%
same,inhibition at 12.5 µM,PARK7 [1]; [6],81.8%
same,inhibition at 37.5 µM,PARK7 [1]; [7],94.6%
same,inhibition at 100 µM,PARK7 [1]; [8],97.4%
CC(c1ccccc1)N(C)C(=O)CCl (stereo not shown) [Z86023354],inhibition at 12.5 µM,PARK7 [2]; [3],88.4%
same,inhibition at 37.5 µM,PARK7 [2]; [4],89.7%
same,inhibition at 100 µM,PARK7 [2]; [5],100%
O=C(CCl)Nc1ccc(N2CCCCCC2)cc1 [Z190662892],inhibition at 12.5 µM,PARK7 [2]; [3],84.2%
same,inhibition at 37.5 µM,PARK7 [2]; [4],85.1%
same,inhibition at 100 µM,PARK7 [2]; [5],100%
CC1CCc2ccccc2N1C(=O)CCl (stereo not shown) [Z220564178],inhibition at 12.5 µM,PARK7 [2]; [3],100%
same,inhibition at 37.5 µM,PARK7 [2]; [4],100%
same,inhibition at 100 µM,PARK7 [2]; [5],100%
same,inhibition at 12.5 µM,PARK7 [1]; [6],80.5%
same,inhibition at 37.5 µM,PARK7 [1]; [7],79.6%
same,inhibition at 100 µM,PARK7 [1]; [8],91.4%
Cc1cc(C(=O)CCl)c(C)[nH]1 [Z235333089],inhibition at 12.5 µM,PARK7 [2]; [3],11.4%
same,inhibition at 37.5 µM,PARK7 [2]; [4],16.2%
same,inhibition at 100 µM,PARK7 [2]; [5],54.4%
CC1=NOC(=O)C1CC(=O)O (stereo not shown) [Z367451146],inhibition at 12.5 µM,PARK7 [2]; [3],100%
same,inhibition at 37.5 µM,PARK7 [2]; [4],100%
same,inhibition at 100 µM,PARK7 [2]; [5],100%
same,inhibition at 12.5 µM,PARK7 [1]; [6],92.2%
same,inhibition at 37.5 µM,PARK7 [1]; [7],100%
same,inhibition at 100 µM,PARK7 [1]; [8],100%
NC(=O)c1csc(C(=O)CCl)c1 [Z802671642],inhibition at 12.5 µM,PARK7 [2]; [3],23.8%
same,inhibition at 37.5 µM,PARK7 [2]; [4],25.8%
same,inhibition at 100 µM,PARK7 [2]; [5],68%
CC(c1ccc(Cl)cc1)N(C)C(=O)CCl (stereo not shown) [Z1562123076],inhibition at 12.5 µM,PARK7 [2]; [3],79.5%
same,inhibition at 37.5 µM,PARK7 [2]; [4],81.3%
same,inhibition at 100 µM,PARK7 [2]; [5],100%
COc1ccc(NS(=O)(=O)c2ccc(S(=O)(=O)F)cc2)cn1 [Z1672273218],inhibition at 12.5 µM,PARK7 [2],79.5%
same,inhibition at 37.5 µM,PARK7 [2],83.8%
same,inhibition at 100 µM,PARK7 [2],100%
Cn1c(=O)ccn(CC(=O)Nc2cccc(S(=O)(=O)F)c2)c1=O [Z1713568698],inhibition at 12.5 µM,PARK7 [2],80.3%
same,inhibition at 37.5 µM,PARK7 [2],78.2%
same,inhibition at 100 µM,PARK7 [2],100%
O=C(CSC(F)(F)F)Nc1cccc(S(=O)(=O)F)c1 [Z1713569375],FP assay %Inhibiton (12.5 µM),PARK7 [2]; [3],98.9%
same,FP assay %Inhibiton (37.5 µM),PARK7 [2]; [4],100.0%
same,FP assay %Inhibiton (100 µM),PARK7 [2]; [5],100.0%
same,DiFMuAc assay %Inhibiton (12.5 µM),PARK7 [1]; [6],81.4%
same,DiFMuAc assay %Inhibiton (37.5 µM),PARK7 [1]; [7],49.1%
same,DiFMuAc assay %Inhibiton (100 µM),PARK7 [1]; [8],97.1%
O=C(Nc1cccc(S(=O)(=O)F)c1)C1CCCC1 [Z1713569513],FP assay %Inhibiton (12.5 µM),PARK7 [2]; [3],67.6%
same,FP assay %Inhibiton (37.5 µM),PARK7 [2]; [4],76.9%
same,FP assay %Inhibiton (100 µM),PARK7 [2]; [5],100.0%
COC(=O)Nc1ccc(S(=O)(=O)F)cc1[N+](=O)[O-] [Z1741956298],FP assay %Inhibiton (12.5 µM),PARK7 [2]; [3],72.6%
same,FP assay %Inhibiton (37.5 µM),PARK7 [2]; [4],75.8%
same,FP assay %Inhibiton (100 µM),PARK7 [2]; [5],100.0%
CC(C)CC(=O)NNS(=O)(=O)c1cccc(S(=O)(=O)F)c1 [Z1764309349],inhibition at 12.5 µM,PARK7 [2],100%
same,inhibition at 37.5 µM,PARK7 [2],100%
same,inhibition at 100 µM,PARK7 [2],100%
same,inhibition at 12.5 µM,PARK7 [1],94%
same,inhibition at 37.5 µM,PARK7 [1],94.6%
same,inhibition at 100 µM,PARK7 [1],94.4%
O=S(=O)(F)c1cccc(S(=O)(=O)Nc2cccnc2O)c1 [Z1764375816],inhibition at 12.5 µM,PARK7 [2],100%
same,inhibition at 37.5 µM,PARK7 [2],100%
same,inhibition at 100 µM,PARK7 [2],100%
same,inhibition at 12.5 µM,PARK7 [1],97.1%
same,inhibition at 37.5 µM,PARK7 [1],99.2%
same,inhibition at 100 µM,PARK7 [1],100%
O=C(NNS(=O)(=O)c1cccc(S(=O)(=O)F)c1)C1CCC1 [Z1764398070],inhibition at 12.5 µM,PARK7 [2],100%
same,inhibition at 37.5 µM,PARK7 [2],100%
same,inhibition at 100 µM,PARK7 [2],100%
same,inhibition at 12.5 µM,PARK7 [1],95.7%
same,inhibition at 37.5 µM,PARK7 [1],98%
same,inhibition at 100 µM,PARK7 [1],96.8%
O=C1CCC(CC(=O)Nc2cccc(S(=O)(=O)F)c2)CC1 [Z1832812448],inhibition at 12.5 µM,PARK7 [2],0%
same,inhibition at 37.5 µM,PARK7 [2],0%
same,inhibition at 100 µM,PARK7 [2],0%
O=C(CCl)c1ccccn1 [Z1954803958],inhibition at 12.5 µM,PARK7 [2]; [3],0%
same,inhibition at 37.5 µM,PARK7 [2]; [4],0%
same,inhibition at 100 µM,PARK7 [2]; [5],23.5%
O=C(CCl)c1cscn1 [Z2491497305],inhibition at 12.5 µM,PARK7 [2]; [3],4.5%
same,inhibition at 37.5 µM,PARK7 [2]; [4],7.6%
same,inhibition at 100 µM,PARK7 [2]; [5],51.6%
O=C(CCl)c1ccc(F)c(Cl)c1 [Z2492395560],inhibition at 12.5 µM,PARK7 [2]; [3],20.7%
same,inhibition at 37.5 µM,PARK7 [2]; [4],37.4%
same,inhibition at 100 µM,PARK7 [2]; [5],88.1%
O=C(NCCCS(=O)(=O)F)c1cccs1 [Z3267389796],FP assay %Inhibiton (12.5 µM),PARK7 [2]; [3],83.1%
same,FP assay %Inhibiton (37.5 µM),PARK7 [2]; [4],80.1%
same,FP assay %Inhibiton (100 µM),PARK7 [2]; [5],100.0%
O=[N+]([O-])c1ccc(C(F)(F)F)c(S(=O)(=O)F)c1 [Z3396482545],FP assay %Inhibiton (12.5 µM),PARK7 [2]; [3],36.7%
same,FP assay %Inhibiton (37.5 µM),PARK7 [2]; [4],36.2%
same,FP assay %Inhibiton (100 µM),PARK7 [2]; [5],92.4%
